# Entries after “also recorded” stand apart in the source; their conditions may differ.
# Tests used:
# [1] = system: glutamate or GABA receptors subtypes; conditions: xenopus oocyte model, clinically relevant concentrations; cited from earlier work
# [2] = safety and adverse effects in the 12-week trial in youth with autistic disorder; type: in vivo, human; conditions: nine youth with autistic disorder receiving acamprosate
# Method: A 12-week single-blind, placebo-controlled trial of the effect of acamprosate in the treatment of 12 youths with autistic disorder aged 5 to 17 years was carried out. In order to pilot test use of acamprosate in youth with autism targeting core social impairment, was conducted. All subjects and their family members were blinded to treatment status. All subjects participated in a 2 week placebo-lead-in phase prior to 10 weeks of treatment with acamprosate. For this project, enteric coated commercially available 333 mg acamprosate pills were over-encapsulated and identical matching placebo manufactured for the project. Placebo-responders, defined by a Clinical Global Impressions Improvement scale (CGI-I) score of 1 “very much improved” or 2 “much improved” (ratings anchored to core social deficits) at week 2 were asked to exit the study. During active treatment with acamprosate, dosing was increased in 333 mg increments per week over the first six weeks of active treatment to a maximum dose of 1,332 mg/day (weight<5 60 kg) or 1,998 mg/day (weight>60 kg). During the final four weeks of active drug treatment, subjects were maintained on a stable highest tolerated (optimal) dose. The primary outcome measure was the clinician-rated CGI-I anchored to symptoms of social impairment. […]
smiles,measurement,setting,value
"CC(=O)NCCCS(=O)(=O)O.[Ca] [acamprosate, Calcium Acetylhomotaurine]",direct binding to glutamate or GABA receptors subtypes,[1],no direct binding
same,overall tolerability,[2],well tolerated with no adverse effects leading to drug discontinuation or laboratory/vital sign abnormalities noted; also recorded: well tolerated with no adverse effects leading to drug discontinuation and no vital sign or safety laboratory changes noted
